Read-outs that look alike come from different tables or passages of the source.
How the values were obtained:
[1] = system: Intestinal cells (Caco-2); assay: Intestinal cells - cell viability; format: cell-based; set-up: unit not given here
Text: For this purpose, intestinal barrier model (transwell, patented model from Novara University, Italy) is used to determine the rate of passage and therefore to estimate a better pass-effect of melatonin in combination with piperine and vitamin D than melatonin alone. In this phase, vitality will also be assessed in the presence of the treatments alone and in combination with melatonin, in addition to melatonin alone. […] A time-dependent trend can be observed for all tested substances. In addition, substances other than melatonin have an efficacy that resolves within 2-4 hours of treatment.

[2] = cited from earlier work
[3] = system: Intestinal cells (Caco-2); assay: Intestinal absorption rate, intestinal barrier model (transwell), fluorescent tracer; format: in vitro ADME
Text: For this purpose, intestinal barrier model (transwell, patented model from Novara University, Italy) is used to determine the rate of passage and therefore to estimate a better pass-effect of melatonin in combination with piperine and vitamin D than melatonin alone. In this phase, vitality will also be assessed in the presence of the treatments alone and in combination with melatonin, in addition to melatonin alone. […] 3.1.b. Intestinal absorption: to determine speed based on the fluorescent tracer, the percentage velocity calculated with respect to the control.

[4] = Time 1 h, Melatonin 1mM, Piperine 5µM, Vitamin D3 1nM, Vitamin B6 500µM

SMILES: Cc1ncc(CO)c(CO)c1O.Cl [Vitamin B6, Pyridoxine HCI]
- Cell viability, Average [1, 4]: 11.985
- Cell viability, Average ([1]; Time 2 h): 5.215
- Cell viability, Average ([1]; Time 3 h): 5.965
- Cell viability, Average ([1]; Time 4 h): 9.105
- Cell viability, Average ([1]; Time 5 h): 3.565
- Cell viability, Average ([1]; Time 6 h): 4.8

SMILES: COc1ccc2[nH]cc(CCNC(C)=O)c2c1 [Melatonin, N-[2-(5-Methoxy-1H-indol-3-yl)ethyl]acetamide]
- Cell viability, Average [1, 4]: 13.375
- Cell viability, Average ([1]; Time 2 h): 10.905
- Cell viability, Average ([1]; Time 3 h): 7.57
- Cell viability, Average ([1]; Time 4 h): 6.965
- Cell viability, Average ([1]; Time 5 h): 2.57
- Cell viability, Average ([1]; Time 6 h): 1.005

SMILES: O=C(/C=C/C=C/c1ccc2c(c1)OCO2)N1CCCCC1 [Piperine, (2E,4E)-5-(2H-1,3-Benzodioxol-5-yl)-1-(piperidin-1-yl)penta-2,4-dien-1-one]
- solubility ([2]; in alcohol): soluble
- solubility ([2]; in water): insoluble
- Cell viability, Average [1, 4]: 6.37
- Cell viability, Average ([1]; Time 2 h): 30.25
- Cell viability, Average ([1]; Time 3 h): 21.625
- Cell viability, Average ([1]; Time 4 h): 14.125
- Cell viability, Average ([1]; Time 5 h): 12.32
- Cell viability, Average ([1]; Time 6 h): 6.74

SMILES: C=C1CC[C@H](O)C/C1=C/C=C1\CCC[C@]2(C)[C@@H]([C@H](C)CCCC(C)C)CC[C@@H]12 [Vitamin D3]
- Cell viability, Average [1, 4]: 6.91
- Cell viability, Average ([1]; Time 2 h): 14.185
- Cell viability, Average ([1]; Time 3 h): 18.32
- Cell viability, Average ([1]; Time 4 h): 16.325
- Cell viability, Average ([1]; Time 5 h): 9.315
- Cell viability, Average ([1]; Time 6 h): 0.78
- Speed (percentage velocity calculated with respect to the control) ([3]; Time 2 h): 15.00%
- Speed (percentage velocity calculated with respect to the control) ([3]; Time 3 h): 19.00%
- Speed (percentage velocity calculated with respect to the control) ([3]; Time 4 h): 17.00%
- Speed (percentage velocity calculated with respect to the control) ([3]; Time 5 h): 13.00%
- Speed (percentage velocity calculated with respect to the control) ([3]; Time 6 h): 10.00%
- Speed (percentage velocity calculated with respect to the control) ([3]; time 1 h): 10.00%
- Speed (percentage velocity calculated with respect to the control) ([3]; time point printed as 30): 8.00%
